Measurements reported in US20220324835A1 (Nurix Therapeutics, Inc., priority 2018, published 2022).

How the values were obtained:
T-cell [1] = test: IL-2 secretion from T-cells stimulated with anti-CD3 antibody alone (Biological Example 2); format: cell-based, human; settings: T-cell, read-out: IL-2 secretion Anti-CD3 stimulation; for fold induction at 1 µM: 1 μM Cbl-b inhibitor; for fold induction at 8 µM: 8 μM Cbl-b inhibitor
Cbl-b [2] = target: T1, Cbl-b (Homo sapiens, UniProt Q13191); test: Cbl-b inhibition assay (Cbl-b activity assay, FRET, Biological Example 1; 100 mM NaCl, 60 nM Src kinase); format: biochemical; settings: upper bound stated in text lists; read-out: IC50 values in the Cbl-b inhibition assay of Biological Example 1
T1 sequence (Q13191 36-427): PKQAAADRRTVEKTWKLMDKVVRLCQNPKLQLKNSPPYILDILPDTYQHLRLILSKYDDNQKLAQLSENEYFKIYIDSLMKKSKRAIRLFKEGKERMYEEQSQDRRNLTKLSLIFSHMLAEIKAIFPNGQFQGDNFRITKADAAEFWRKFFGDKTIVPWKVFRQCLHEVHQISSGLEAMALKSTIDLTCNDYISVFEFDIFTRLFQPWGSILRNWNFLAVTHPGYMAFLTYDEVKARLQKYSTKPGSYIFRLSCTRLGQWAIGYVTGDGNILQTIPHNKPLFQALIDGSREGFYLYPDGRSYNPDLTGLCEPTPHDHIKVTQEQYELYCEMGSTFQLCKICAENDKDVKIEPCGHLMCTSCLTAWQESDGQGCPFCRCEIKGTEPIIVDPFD
In short: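 Inhibitor activity is measured as reduced terbium-to-fluorescein FRET between streptavidin-terbium on biotinylated Cbl-b and Bodipy-fluorescein ubiquitin carried by an irreversible UbcH5B-Ub conjugate, binding of which depends on Src phosphorylation of Cbl-b.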

T-cell [3] = test: CD25 cell surface staining on T-cells stimulated with anti-CD3 antibody alone (Biological Example 2); format: cell-based, human; settings: T-cell, read-out: CD25 staining Anti-CD3 stimulation; for fold induction at 1 µM: 1 μM Cbl-b inhibitor; for fold induction at 8 µM: 8 μM Cbl-b inhibitor
Cbl-b [4] = target: T1, Cbl-b; test: Cbl-b activity assay (Cbl-b inhibition assay), TR-FRET of Cbl-b interaction with UbcH5B-Ub; format: biochemical; settings: assay buffer with 100 mM NaCl, 60 nM Src kinase; read-out: Cbl-b activity IC50
In short: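 Compound-treated Cbl-b was incubated 1.5 h with Src kinase (60 nM final; 30 nM for asterisked values, which also used 50 mM instead of 100 mM NaCl), 1 mM ATP and 5 mM MgCl2. Binding to fluorescent Ub-loaded UbcH5B (C85K mutant) was then read by TR-FRET after 1 h more.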

T-cell [5] = test: IL-2 secretion from T-cells co-stimulated with anti-CD3 and anti-CD28 antibody (Biological Example 2); format: cell-based, human; settings: Homo sapiens, T-cell, read-out: IL-2 secretion Anti-CD3/Anti-CD28 stimulation; for fold induction at 0.3 µM: 0.3 μM Cbl-b inhibitor; for fold induction at 1 µM: 1 μM Cbl-b inhibitor; for fold induction at 4 µM: 4 μM Cbl-b inhibitor
In short: (§1)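 Values are fold-change over baseline: readings (IL-2 release, CD25 staining) from inhibitor-treated T-cells divided against untreated cells […]. No detailed procedure stated.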

T-cell [6] = test: CD25 cell surface staining on T-cells co-stimulated with anti-CD3 and anti-CD28 antibody (Biological Example 2); format: cell-based, human; settings: Homo sapiens, T-cell, read-out: CD25 staining Anti-CD3/Anti-CD28 stimulation; for fold induction at 0.3 µM: 0.3 μM Cbl-b inhibitor; for fold induction at 1 µM: 1 μM Cbl-b inhibitor; for fold induction at 4 µM: 4 μM Cbl-b inhibitor
In short: as §1

[7] = Homo sapiens, fold change over baseline (anti-CD3/anti-CD28 stimulated T-cells without inhibitor)
[8] = fold change over baseline (anti-CD3/anti-CD28 stimulated T-cells without inhibitor)
[9] = fold change over baseline, primary human total T-cells

Structure (SMILES) | fold induction at 1 µM (T-cell [1]; [7]) | IC50 (Cbl-b [2]) | fold induction at 1 µM (T-cell [3]; [7]) | IC50 (Cbl-b [4]) | fold induction at 0.3 µM (T-cell [5]; [8]) | fold induction at 1 µM (T-cell [5]; [8]) | fold induction at 0.3 µM (T-cell [6]; [8]) | fold induction at 1 µM (T-cell [6]; [8]) | fold induction at 1 µM (T-cell [1]; [9]) | fold induction at 8 µM (T-cell [1]; [9]) | fold induction at 1 µM (T-cell [3]; [9]) | fold induction at 8 µM (T-cell [3]; [9]) | fold induction at 0.3 µM (T-cell [5]; [9]) | fold induction at 1 µM (T-cell [5]; [9]) | fold induction at 4 µM (T-cell [5]; [9]) | fold induction at 0.3 µM (T-cell [6]; [9]) | fold induction at 1 µM (T-cell [6]; [9]) | fold induction at 4 µM (T-cell [6]; [9])
Cc1cc(C(=O)Nc2cccc(C3(Cc4nncn4C)COC3)c2)n2nccc2n1 [Example 596, 5-Methyl-N-(3-(3-((4-methyl-4H-1,2,4-triazol-3-yl)methyl)oxetan-3-yl)phenyl)pyrazolo[1,5-a]pyrimidine-7-carboxamide] | < 0.05 | ≤ 300 nM | 0.601 to 0.8 | 100 to 300 nM | 1.01 to 2.5 | 1.01 to 2.5 | 1.01 to 1.3 | 1.01 to 1.3 | – | – | – | – | – | – | – | – | – | –
Cn1cnnc1[C@@H](F)C1(c2cccc(N3Cc4c(cc(CN5[C@@H]6CC[C@H]5C[C@@H](F)C6)cc4C(F)(F)F)C3=O)c2)COC1 [Example 672a, 2-(3-(3-((S)-fluoro(4-methyl-4H-1,2,4-triazol-3-yl)methyl)oxetan-3-yl)-phenyl)-6-(((1R,3S,5S)-3-fluoro-8-azabicyclo[3.2.1]octan-8-yl)methyl)-4-(trifluoromethyl)isoindolin-1-one] | > 0.201 | ≤ 100 nM | 0.801 to 1 | < 100 nM | 2.51 to 5 | > 7.5 | > 1.76 | > 1.76 | – | – | – | – | – | – | – | – | – | –
CC1C(C(F)(F)F)CCN1Cc1cc2c(c(C(F)(F)F)c1)CN(c1cccc(C3(Cc4nncn4C)COC3)c1)C2=O (centres unmarked) [Example 588, 6-((2-Methyl-3-(trifluoromethyl)pyrrolidin-1-yl)methyl)-2-(3-(3-((4-methyl-4H-1,2,4-triazol-3-yl)methyl)oxetan-3-yl)phenyl)-4-(trifluoromethyl)isoindolin-1-one] | 0.051 to 0.1 | ≤ 100 nM | > 1 | < 100 nM | 5 to 7.5 | > 7.5 | 1.01 to 1.3 | 1.31 to 1.5 | – | – | – | – | – | – | – | – | – | –
C[C@@H](c1cccc(N2Cc3c(cccc3C(F)(F)F)C2=O)c1)[C@H](F)c1nncn1C (relative stereo) [Compound 293, trans-2-(3-(1-fluoro-1-(4-methyl-4H-1,2,4-triazol-3-yl)propan-2-yl)phenyl)-4-(trifluoromethyl)isoindolin-1-one] | – | ≤ 500 nM | – | 100 to 300 nM | – | – | – | – | 0.101 to 0.15 | > 0.201 | 0.601 to 0.8 | 0.801 to 1 | 2.51 to 5 | 2.51 to 5 | 2.51 to 5 | 1.01 to 1.3 | 1.01 to 1.3 | 1.01 to 1.3
Cn1cnnc1CC1(c2cccc(N3Cc4c(cc(CN5CCC(C(F)F)CC5)cc4C(F)(F)F)C3=O)c2)COC1 [Example 643, 6-((4-(difluoromethyl)piperidin-1-yl)methyl)-2-(3-(3-((4-methyl-4H-1,2,4-triazol-3-yl)methyl)oxetan-3-yl)phenyl)-4-(trifluoromethyl)isoindolin-1-one] | 0.151 to 0.2 | ≤ 100 nM | > 1 | < 100 nM | 5 to 7.5 | > 7.5 | 1.31 to 1.5 | 1.31 to 1.5 | – | – | – | – | – | – | – | – | – | –
Cn1cnnc1CC1(c2cccc(N3Cc4c(cc(CN5CCCc6c5cnn6C)cc4C(F)(F)F)C3=O)c2)COC1 [Example 651] | > 0.201 | ≤ 100 nM | > 1 | < 100 nM | 5 to 7.5 | > 7.5 | 1.01 to 1.3 | 1.01 to 1.3 | – | – | – | – | – | – | – | – | – | –
Cc1cc(C(=O)Nc2cccc(C3(Cc4nncn4C)COC3)c2)nc(C2CC2)c1 [Compound 339, 6-cyclopropyl-4-methyl-N-(3-(3-((4-methyl-4H-1,2,4-triazol-3-yl)methyl)oxetan-3-yl)phenyl)picolinamide] | – | ≤ 100 nM | – | < 100 nM | – | – | – | – | > 0.201 | > 0.201 | > 1 | > 1 | 5 to 7.5 | > 7.5 | > 7.5 | 1.31 to 1.5 | 1.31 to 1.5 | 1.51 to 1.75
CCOc1cc(NC(=O)c2cc(C)nc(C3CC3)n2)cc(C2(Cc3nncn3C)COC2)c1 [Example 690, 2-cyclopropyl-N-(3-ethoxy-5-(3-((4-methyl-4H-1,2,4-triazol-3-yl)methyl)oxetan-3-yl)phenyl)-6-methylpyrimidine-4-carboxamide] | 0.051 to 0.1 | ≤ 100 nM | 0.801 to 1 | < 100 nM | 2.51 to 5 | 5 to 7.5 | 1.01 to 1.3 | 1.01 to 1.3 | – | – | – | – | – | – | – | – | – | –
Cn1cnnc1CC1(c2cccc(N3Cc4c(cc(CN5CC[C@H](F)C5)nc4C4CC4)C3=O)c2)COC1 [Example 578, (S)-4-cyclopropyl-6-((3-fluoropyrrolidin-1-yl)methyl)-2-(3-(3-((4-methyl-4H-1,2,4-triazol-3-yl)methyl)oxetan-3-yl)phenyl)-2,3-dihydro-1H-pyrrolo[3,4-c]pyridin-1-one] | 0.051 to 0.1 | ≤ 100 nM | 0.801 to 1 | < 100 nM | 2.51 to 5 | 5 to 7.5 | 1.01 to 1.3 | 1.01 to 1.3 | – | – | – | – | – | – | – | – | – | –
COc1cc(C(=O)Nc2cccc(C3(Cc4nncn4C)COC3)c2)nc(C2CC2)n1 [Compound 342, 2-cyclopropyl-6-methoxy-N-(3-(3-((4-methyl-4H-1,2,4-triazol-3-yl)methyl)oxetan-3-yl)phenyl)pyrimidine-4-carboxamide] | – | ≤ 100 nM | – | < 100 nM | – | – | – | – | 0.151 to 0.2 | – | > 1 | – | 5 to 7.5 | > 7.5 | – | 1.01 to 1.3 | 1.31 to 1.5 | –
Cn1cnnc1CC1(c2cccc(N3Cc4c(cc(CN5CCC6(CC6)C(F)(F)C5)cc4C(F)(F)F)C3=O)c2)COC1 [Example 636, 6-((4,4-difluoro-6-azaspiro[2.5]octan-6-yl)methyl)-2-(3-(3-((4-methyl-4H-1,2,4-triazol-3-yl)methyl)oxetan-3-yl)phenyl)-4-(trifluoromethyl)isoindolin-1-one] | > 0.201 | ≤ 100 nM | > 1 | < 100 nM | 2.51 to 5 | > 7.5 | 1.31 to 1.5 | 1.31 to 1.5 | – | – | – | – | – | – | – | – | – | –
Cn1cnnc1CC1(c2cccc(NC(=O)c3cc(CN4CC[C@H](F)C4)nc(C4CC4)n3)c2)COC1 [Example 574, (S)-2-Cyclopropyl-6-((3-fluoropyrrolidin-1-yl)methyl)-N-(3-(3-((4-methyl-4H-1,2,4-triazol-3-yl)methyl)oxetan-3-yl)phenyl)pyrimidine-4-carboxamide] | > 0.201 | ≤ 100 nM | > 1 | < 100 nM | > 7.5 | > 7.5 | 1.51 to 1.75 | 1.51 to 1.75 | – | – | – | – | – | – | – | – | – | –
